Laboratory results as given in PubChem BioAssay (NCI).
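Growth conditions: 96-well plates. Treatment: test compound, 48 hours, 5 concentrations. Analysis: linear interpolation between bracketing concentrations; unreached endpoints set to highest concentration. GI50: concentration for 50% inhibition of growth. TGI is the concentration that stops growth completely.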

Legend:
Assay in all cases: DTP human tumour cell line panel, 48 h
UACC-257 melanoma = tested on: UACC-257 melanoma
HOP-92 NSCLC = tested on: HOP-92 NSCLC
NCI-H522 lung = tested on: NCI-H522 lung
OVCAR-4 ovarian = tested on: OVCAR-4 ovarian
SNB-75 CNS = tested on: SNB-75 CNS
IGROV1 ovarian = tested on: IGROV1 ovarian
CAKI-1 renal = tested on: CAKI-1 renal
DU-145 prostate = tested on: DU-145 prostate
PC-3 prostate = tested on: PC-3 prostate
NCI/ADR-RES ovarian = tested on: NCI/ADR-RES ovarian

Row | SMILES | TGI (UACC-257 melanoma) [µM] | TGI (HOP-92 NSCLC) [µM] | TGI (NCI-H522 lung) [µM] | TGI (OVCAR-4 ovarian) [µM] | TGI (SNB-75 CNS) [µM] | TGI (IGROV1 ovarian) [µM] | TGI (CAKI-1 renal) [µM] | GI50 (UACC-257 melanoma) [µM] | GI50 (DU-145 prostate) [µM] | TGI (DU-145 prostate) [µM] | GI50 (NCI-H522 lung) [µM] | GI50 (OVCAR-4 ovarian) [µM] | GI50 (SNB-75 CNS) [µM] | GI50 (PC-3 prostate) [µM] | TGI (PC-3 prostate) [µM] | GI50 (IGROV1 ovarian) [µM] | GI50 (CAKI-1 renal) [µM] | GI50 (NCI/ADR-RES ovarian) [µM] | TGI (NCI/ADR-RES ovarian) [µM] | GI50 (HOP-92 NSCLC) [µM]
1 | CC1=CC(O)(c2ccc(-c3ccccc3Cl)cc2)OC1=O (stereo not drawn) | > 100 | > 100 | > 100 | > 100 | > 100 | > 100 | > 100 | – | – | – | – | – | – | – | – | – | – | – | – | –
2 | CC(C)OP(=O)(OC(C)C)C(=NCCN=C(NNc1ccc([N+](=O)[O-])cc1)P(=O)(OC(C)C)OC(C)C)NNc1ccc([N+](=O)[O-])cc1 | > 100 | 8.82 | – | > 100 | > 100 | 16.7 | 25.4 | – | – | – | – | – | – | – | – | – | – | – | – | –
3 | OCC#Cc1ccccc1C#Cc1ccccc1 | 32 | – | 69 | 45.2 | 30.4 | > 100 | 25.5 | 16.2 | 14.9 | 28.2 | 24.1 | 17 | 14.6 | 11.5 | 24.1 | 30.3 | 12.2 | 14.8 | 30.8 | –
4 | CCOC(=O)C(=C=C=C(c1ccccc1)c1ccccc1)C(=O)OCC | 33.4 | 31.3 | – | 33.7 | 21.9 | 37.9 | – | – | – | – | – | – | – | – | – | – | – | – | – | –
5 | CC(=O)OC1COC(n2ccc3cc(Br)c([N+](=O)[O-])cc32)C(OC(C)=O)C1OC(C)=O (stereo not drawn) | 52 | 42 | – | – | 75.2 | > 100 | > 100 | – | – | – | – | – | – | – | – | – | – | – | – | –
6 | Cn1c2ccccc2c2cc(-c3ccccc3)c3c(c21)C(=O)c1ccccc1C3=O | 42.9 | 26.3 | 48.4 | 34.3 | > 100 | 58.5 | > 100 | – | – | – | – | – | – | – | – | – | – | – | – | –
7 | O=C(CSc1ccc(Cl)cc1)Nc1ccc(-c2nc3ccccc3s2)c(Cl)c1 | > 100 | – | – | > 100 | > 100 | 75.8 | 10.3 | 15.7 | – | – | – | 5.95 | 29.1 | 2.42 | 8.23 | 0.744 | 2.53 | 4.39 | 32.6 | –
8 | Brc1ccccc1C1SCc2nc3ccccc3n21 (stereo not drawn) | – | 26.8 | 33.9 | 75.9 | 47.1 | 70.6 | 61.2 | – | – | – | – | – | – | – | – | – | – | – | – | –
9 | CCc1cc(Cc2cc(CC)c(NC(=O)C(=O)Cc3ccccn3)c(CC)c2Cl)c(Cl)c(CC)c1NC(=O)C(=O)Cc1ccccn1 | > 100 | > 100 | – | > 100 | > 100 | > 100 | > 100 | – | – | – | – | – | – | – | – | – | – | – | – | –
10 | O=c1c2sccc2n(CC2COc3ccccc3O2)c(=O)n1O (stereo not drawn) | > 100 | – | > 100 | 98.7 | 56 | > 100 | 97.3 | 22.4 | 19.8 | > 100 | 6.2 | 13.9 | 3.81 | 18.2 | > 100 | 15.4 | 20.1 | 23 | > 100 | –
11 | O=c1cc(-c2ccccc2)oc2cc(OCCCOc3ccc4c(=O)cc(-c5ccccc5)oc4c3)ccc12 | > 100 | > 100 | > 100 | > 100 | > 100 | > 100 | > 100 | – | – | – | – | – | – | – | – | – | – | – | – | –
12 | Cc1ccc(S(=O)(=O)Nc2ccccc2C(=O)c2ccc(C)c(C)c2)cc1 | > 100 | – | > 100 | > 100 | > 100 | > 100 | > 100 | – | – | > 100 | – | – | – | – | > 100 | – | – | – | > 100 | –
13 | CC(=O)[C@@]12O[C@@H]1CC1C3CCC4=CC(O)CCC4(C)C3CCC12C (stereo partly drawn) | > 100 | – | > 100 | > 100 | 50.8 | > 100 | > 100 | > 100 | 15 | 31.8 | > 100 | 23.2 | 18.7 | 40.3 | > 100 | 31.8 | > 100 | 20.4 | > 100 | –
14 | Cc1cccc(NC(=O)Cn2cnc3sc(C(=O)OC(C)C)c(C)c3c2=O)c1 | > 50 | > 50 | 44.6 | – | 39.5 | > 50 | > 50 | 19 | 9.33 | 36.6 | 12.3 | – | 17.5 | > 50 | > 50 | 16.3 | 45.9 | – | – | > 50
15 | CC(C)(C)OC(=O)N[C@H]1CC2(C=C(Cl)C(=O)C(Cl)=C2)OC1=O | 21.2 | 31.7 | 7.18 | 32.5 | 41.1 | 36 | 26.5 | – | – | 78.9 | – | – | – | – | 32.1 | – | – | – | – | –
16 | COc1ccc([C@H]2[C@@H](F)C(=O)N2c2cc(OC)c(OC)c(OC)c2)cc1F | > 100 | 63.9 | > 100 | > 100 | > 100 | > 100 | – | > 100 | 0.269 | > 100 | 0.0383 | 0.966 | > 100 | 0.042 | > 100 | 0.0946 | – | 0.0424 | > 100 | 0.266
17 | CC1(C)C2CCC(=O)C1CC2 (stereo not drawn) | > 100 | – | > 100 | – | > 100 | > 100 | > 100 | – | – | > 100 | – | – | – | – | > 100 | – | – | – | > 100 | –
18 | COc1ccc(S(=O)(=O)NNS(C)(=O)=O)cc1 | > 100 | – | > 100 | > 100 | > 100 | > 100 | > 100 | – | – | – | – | – | – | – | – | – | – | – | – | –
19 | CN(C)c1nc(=Nc2ccc(N=c3nc(N(C)C)ss3)cc2)ss1 | > 91.4 | > 100 | 25.8 | 48.1 | > 100 | > 71.7 | > 59.5 | – | – | – | – | – | – | – | – | – | – | – | – | –
20 | Cc1c2c(nn1-c1ccc(S(=O)(=O)/N=C3\SCCC(=O)N3c3ccccc3)cc1)-c1ccccc1CC2 | > 100 | > 100 | > 100 | > 100 | – | > 100 | > 100 | > 100 | > 100 | > 100 | 91.4 | > 100 | – | > 100 | > 100 | > 100 | > 100 | > 100 | > 100 | 81.2
